Reference: paper PMC7285070, “Quercetin Is a Flavonoid Breast Cancer Resistance Protein Inhibitor with an Impact on the Oral Pharmacokinetics of Sulfasalazine in Rats” (Pharmaceutics, 2020)
“And” between values parts separate entries of the source, which are not always exact repeats. Equal entries are not always repeated. Where two headings read alike, the source gives them in different places. Blank lines part the entries; values can stand above or below the compound they belong to.

Tests used:
in vivo = test: in vivo; design: species or system rats; settings: rat
Experimental: To determine whether quercetin affects the intestinal efflux mediated by BCRP, we divided the male rats into two groups: A sulfasalazine (a substrate of BCRP) control group and a quercetin pretreatment plus sulfasalazine group (n = 4, each). Considering the similar expression levels of intestinal BCRP between male and female rats, male rats were used in this study. Briefly, overnight fasted male SD rats were anesthetized by intramuscular administration of 50 mg/kg tiletamine HCl/zolazepam HCl (Zoletil®) (Vibrac, TX, USA) and 10 mg/kg xylazine HCl (Rompun®, Bayer, Puteaux, France). While the rats were anesthetized, the femoral artery (for blood sampling) and vein (for supplementing body fluids) were catheterized using polyethylene tubing (PE 50; Clay Adams, Parsippany, NJ, USA). Upon recovery from anesthesia (i.e., after 4 h), quercetin was administered by oral gavage at 10 mg/kg (or 0 mg/kg in the case of the sulfasalazine control group; DMSO/polyethylene glycol 400/saline [1:4:5 (v/v/v)]). The pretreatment dose of quercetin was determined based on the compound solubility in the dosing vehicle and the likely daily dose of human dietary supplement. […] Immediately after each blood collection, an identical volume of saline was intravenously provided to the animal to compensate for fluid loss. To prevent blood clotting during blood collection, the cannula was filled with 25 IU/mL heparinized saline. The plasma fraction was separated from the blood samples by centrifugation (16,100 × g for 5 min at 4 °C) and stored at -80 °C until the LC-MS/MS assay. […] Briefly, an aliquot (50 μL) of a sample was vortex-mixed with an acetonitrile solution containing glipizide (300 ng/mL, internal standard); this was followed by centrifugation (16,100 × g for 5 min at 4 °C). An aliquot (5 μL) of the supernatant was directly injected into the LC-MS/MS system. […] For the internal standard glipizide, the transition m/z 445.[…]/z 320.9 was used. […] Standard non-compartmental pharmacokinetic analysis was carried out using WinNonlin Professional 5.0.1 software (Pharsight, Cary, NC, USA) to calculate the pharmacokinetic parameters, including the peak concentration (Cmax), time of the peak concentration (tmax), elimination half-life (t1/2), area under the plasma concentration-time curve from time zero to the last sampling point, 8 h (AUC8h), and elimination clearance (CL/F).

[1] = design: method as in PMID 22711747; settings: BCRP-knockout rats, oral; cited from earlier work
human BCRP [2] = biological target: T1, human BCRP (Homo sapiens, UniProt Q9UNQ0); settings: read-out: Km value for prazosin; BCRP-mediated transport; cited from earlier work
T1 sequence (Q9UNQ0 1-655): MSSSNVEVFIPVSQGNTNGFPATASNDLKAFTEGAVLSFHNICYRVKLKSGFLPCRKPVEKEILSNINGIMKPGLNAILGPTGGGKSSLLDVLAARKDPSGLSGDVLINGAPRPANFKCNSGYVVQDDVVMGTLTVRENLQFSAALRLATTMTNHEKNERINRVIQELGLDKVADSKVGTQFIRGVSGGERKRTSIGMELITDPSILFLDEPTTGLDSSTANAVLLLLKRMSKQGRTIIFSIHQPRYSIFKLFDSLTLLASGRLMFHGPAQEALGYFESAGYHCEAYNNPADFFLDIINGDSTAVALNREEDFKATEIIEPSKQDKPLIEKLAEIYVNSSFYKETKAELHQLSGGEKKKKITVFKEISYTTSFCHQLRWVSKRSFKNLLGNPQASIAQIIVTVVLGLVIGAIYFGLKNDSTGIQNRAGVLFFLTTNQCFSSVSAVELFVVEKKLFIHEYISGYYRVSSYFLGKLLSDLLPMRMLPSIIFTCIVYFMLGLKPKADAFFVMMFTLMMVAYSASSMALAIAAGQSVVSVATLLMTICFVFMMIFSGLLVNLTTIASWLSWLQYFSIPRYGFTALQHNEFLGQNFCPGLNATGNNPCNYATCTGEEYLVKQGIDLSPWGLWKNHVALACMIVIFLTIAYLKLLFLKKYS

HeLa cells [3] = test: Cytotoxicity assay (CCK-8) of mitoxantrone with or without BCRP inhibitor; type: cell-based, human; settings: for IC50: 24 h, CCK-8
Experimental: Dojindo Molecular Technologies, Kumamoto, Japan) following the manufacturer’s instructions. HeLa cells (at a density of 1 × 10^4 cells per well) were seeded and cultured overnight in 96-well plates. […] The absorbance was measured at a wavelength of 450 nm using a microplate reader (BioTeK, Highland Park, WI, USA).

HeLa cells [4] = test: FACS cellular accumulation of mitoxantrone (flow cytometry); type: cell-based, human; settings: for percentage of cells with a significant uptake of MX, higher than at 2 h of treatment with MX alone: 1 μM MX alone
Experimental: The cellular accumulation of quercetin was measured by FACSCalibur flow cytometry (Becton Dickinson, San Jose, CA, USA). For FACScan analysis, 2 × 10^5 HeLa cells/well were seeded into 6-well cell culture plates on the day before the experiment. On the following day, cells were treated with vehicle or quercetin and 1 μM MX. A time course experiment was conducted on HeLa cells following treatment with quercetin (1 and 100 μM) for 2, 4, and 6 h. After treatment, the cells were harvested by trypsinization and transferred to a fluorescence-activated cell sorting (FACS) tube, pelleted by centrifugation (1500 rpm, 5 min), and then resuspended in 200 μL of PBS. Flow cytometry analysis was performed using red fluorescence. A minimum of 10,000 cells were acquired per sample.

[5] = design: method as in PMID 15608138; settings: rats or P-gp-knockout mice; cited from earlier work
mouse BCRP = test system: mouse BCRP; design: method as in PMID 15608138; settings: cited from earlier work
human BCRP [6] = biological target: T1, human BCRP; design: expressed in transfected cells; host or cells: MDCKII (Madin-Darby canine kidney II) cells; method as in PMID 15608138; settings: cited from earlier work
[7] = design: method as in PMID 15948033; settings: 10 mg/kg oral administration to rats; cited from earlier work
BCRP [8] = test system: BCRP; design: method as in PMID 21354800; settings: MDCKII/BCRP cells; read-out: IC50, Hoechst 33342 accumulation; cited from earlier work
BCRP [9] = test system: BCRP; design: method as in PMID 21354800; settings: MCF-7/MX cells; read-out: IC50, Hoechst 33342 accumulation; cited from earlier work
human BCRP [10] = biological target: T1, human BCRP; test: Bi-directional transport of prazosin in MDCKII/BCRP cells; type: cell-based; design: expressed in transfected cells; host or cells: MDCKII (Madin-Darby canine kidney II) cells
Experimental: At the end of the incubation, aliquots (300 μL for the apical chamber and 500 μL for the basolateral chamber) of the incubation mixture were collected from the donor and receiver chambers and subjected to LC-MS/MS assays. […] Briefly, an aliquot (50 μL) of a sample was vortex-mixed with an acetonitrile solution containing glipizide (300 ng/mL, internal standard); this was followed by centrifugation (16,100 × g for 5 min at 4 °C). An aliquot (5 μL) of the supernatant was directly injected into the LC-MS/MS system. […] For the internal standard glipizide, the transition m/z 445.[…]/z 320.9 was used. […] The efflux ratio (ER) was calculated by dividing the B-to-A apparent permeability coefficient (Papp, B-to-A) by the A-to-B apparent permeability coefficient (Papp, A-to-B). In the inhibition studies, the percentage of the control efflux ratio (%ER) was also calculated by dividing the value for ER in the presence of the inhibitor by that in the absence of the inhibitor (i.e., in the control).

AUC8h (in vivo; male, SD, po, 2 mg/kg): 44500 ± 11800 ng·min/mL | CL/F (in vivo; male, SD, po, 2 mg/kg): 33.2 ± 10.2 mL/min/kg | Cmax (in vivo; male, SD, po, 2 mg/kg): 179 ± 23.0 ng/mL | t1/2 (in vivo; male, SD, po, 2 mg/kg): 4.03 ± 1.34 h | tmax (in vivo; male, SD, po, 2 mg/kg): 0.375 ± 0.145 h | AUC(0-t) (in vivo; male, SD, po, 2 mg/kg, AUC8h): 428 ng·h/mL | CL/F (in vivo; male, SD, po, 2 mg/kg, CL/F): 52.5 ± 33.5 mL/min/kg | Cmax (in vivo; male, SD, po, 2 mg/kg, Cmax): 122 ± 23.2 ng/mL | half-life (in vivo; male, SD, po, 2 mg/kg, t1/2): 6.38 ± 1.85 h | tmax (in vivo; male, SD, po, 2 mg/kg, tmax): 0.5 h | change in the elimination half-life (t1/2) of sulfasalazine, quercetin pretreatment vs control (in vivo): no significant change
Compound: O=C(O)c1cc(/N=N/c2ccc(S(=O)(=O)Nc3ccccn3)cc2)ccc1O [sulfasalazine]
increase in absorption (AUC8h, Cmax) of sulfasalazine in knockout rats [1]: approximately 20 fold

Compound: COc1cc2nc(N3CCN(C(=O)c4ccco4)CC3)nc(N)c2cc1OC [prazosin, Prazosin]
Km (human BCRP [2]): 128 µM

Compound: O=C1c2c(O)ccc(O)c2C(=O)c2c(NCCNCCO)ccc(NCCNCCO)c21 [mitoxantrone]
IC50 (HeLa cells [3]; Homo sapiens, in the presence of Ko143 (1 μM)): 0.62 µM | IC50 (HeLa cells [3]; Homo sapiens, HeLa, mitoxantrone alone): 5.83 µM | IC50 (HeLa cells [3]; Homo sapiens, HeLa, with 1 μM quercetin): 1.13 µM | IC50 (HeLa cells [3]; Homo sapiens, HeLa, with 100 μM quercetin): 0.478 µM | IC50 of mitoxantrone as percentage of the control value (mitoxantrone alone) (HeLa cells [3]; with 1 μM quercetin): 19.3% | IC50 of mitoxantrone as percentage of the control value (mitoxantrone alone) (HeLa cells [3]; with 100 μM quercetin): 8.2% and 8.23% | IC50 (HeLa cells [3]; with 100 μM quercetin): 0.48 µM | percentage of cells with a significant uptake of MX, higher than at 2 h of treatment with MX alone (HeLa cells [4]; 4 h): 17.2% | percentage of cells with a significant uptake of MX, higher than at 2 h of treatment with MX alone (HeLa cells [4]; 6 h): 27.1% | cellular uptake of MX, higher than at 2 h of treatment with MX alone (HeLa cells [4]; 1 μM MX with 1 μM quercetin, 4 h): 30.2% | cellular uptake of MX, higher than at 2 h of treatment with MX alone (HeLa cells [4]; 1 μM MX with 1 μM quercetin, 6 h): 35.9% | cellular uptake of MX, higher than at 2 h of treatment with MX alone (HeLa cells [4]; 1 μM MX with 100 μM quercetin, 4 h): 45.3% | cellular uptake of MX, higher than at 2 h of treatment with MX alone (HeLa cells [4]; 1 μM MX with 100 μM quercetin, 6 h): 67.4%

Compound: O=c1cc(-c2ccccc2)oc2cc(O)cc(O)c12 [chrysin]
effect of coadministered flavonoid on the pharmacokinetics of topotecan [5]: no significant effects | inhibition of mouse BCRP (mouse BCRP): weak inhibitors | inhibition of human BCRP (human BCRP [6]): potent inhibitors

IC50 (human BCRP [10]): 4.22 µM | Ki (human BCRP [10]): 3.91 µM
Compound: O=c1c(O)c(-c2ccc(O)c(O)c2)oc2cc(O)cc(O)c12 [quercetin, Quercetin]
Cmax [7]: 210 ng/mL | oral bioavailability [7]: 5.3% | IC50 (BCRP [8]): 6.9 µM | IC50 (BCRP [9]): 7.6 µM

Compound: O=c1cc(-c2ccccc2)oc2c1ccc1ccccc12 [7,8-benzoflavone]
effect of coadministered flavonoid on the pharmacokinetics of topotecan [5]: no significant effects | inhibition of mouse BCRP (mouse BCRP): weak inhibitors | inhibition of human BCRP (human BCRP [6]): potent inhibitors

Compound: COc1ccc2c3c([nH]c2c1)[C@H](CC(C)C)N1C(=O)[C@H](CCC(=O)OC(C)(C)C)NC(=O)[C@@H]1C3 [Ko143]
internalization of MX when co-administered with inhibitor (HeLa cells [4]; 1 μM Ko143 with MX): considerably high number of cells that internalized MX
